# Results reported in the kinase profiling compilation of Christmann-Franck et al. (2016).
# Key:
# Assay in all cases: radiometric filter-binding kinase assay, Kinase HotSpot
# Conditions in all cases: compound 0.5 µM; ATP 10 µM
# YES1 (human) = YES1 (human) (UniProt P07947)
# MATK (human) = MATK (human) (UniProt P42679)
# HIPK1 (human) = HIPK1 (human) (UniProt Q86Z02)
# NEK6 (human) = NEK6 (human) (UniProt Q9HC98)
# PAK2 (human) = PAK2 (human) (UniProt Q13177)
# MAPK1 (human) = MAPK1 (human) (UniProt P28482)
# [1] = target: TYK2 JH1 catalytic (human) (UniProt P29597)
# PKN1 (human) = PKN1 (human) (UniProt Q16512)
# ITK (human) = ITK (human) (UniProt Q08881)
# PDGFRB (human) = PDGFRB (human) (UniProt P09619)
# Chain of PDGFRB (human) (P09619 whole entry, looked up): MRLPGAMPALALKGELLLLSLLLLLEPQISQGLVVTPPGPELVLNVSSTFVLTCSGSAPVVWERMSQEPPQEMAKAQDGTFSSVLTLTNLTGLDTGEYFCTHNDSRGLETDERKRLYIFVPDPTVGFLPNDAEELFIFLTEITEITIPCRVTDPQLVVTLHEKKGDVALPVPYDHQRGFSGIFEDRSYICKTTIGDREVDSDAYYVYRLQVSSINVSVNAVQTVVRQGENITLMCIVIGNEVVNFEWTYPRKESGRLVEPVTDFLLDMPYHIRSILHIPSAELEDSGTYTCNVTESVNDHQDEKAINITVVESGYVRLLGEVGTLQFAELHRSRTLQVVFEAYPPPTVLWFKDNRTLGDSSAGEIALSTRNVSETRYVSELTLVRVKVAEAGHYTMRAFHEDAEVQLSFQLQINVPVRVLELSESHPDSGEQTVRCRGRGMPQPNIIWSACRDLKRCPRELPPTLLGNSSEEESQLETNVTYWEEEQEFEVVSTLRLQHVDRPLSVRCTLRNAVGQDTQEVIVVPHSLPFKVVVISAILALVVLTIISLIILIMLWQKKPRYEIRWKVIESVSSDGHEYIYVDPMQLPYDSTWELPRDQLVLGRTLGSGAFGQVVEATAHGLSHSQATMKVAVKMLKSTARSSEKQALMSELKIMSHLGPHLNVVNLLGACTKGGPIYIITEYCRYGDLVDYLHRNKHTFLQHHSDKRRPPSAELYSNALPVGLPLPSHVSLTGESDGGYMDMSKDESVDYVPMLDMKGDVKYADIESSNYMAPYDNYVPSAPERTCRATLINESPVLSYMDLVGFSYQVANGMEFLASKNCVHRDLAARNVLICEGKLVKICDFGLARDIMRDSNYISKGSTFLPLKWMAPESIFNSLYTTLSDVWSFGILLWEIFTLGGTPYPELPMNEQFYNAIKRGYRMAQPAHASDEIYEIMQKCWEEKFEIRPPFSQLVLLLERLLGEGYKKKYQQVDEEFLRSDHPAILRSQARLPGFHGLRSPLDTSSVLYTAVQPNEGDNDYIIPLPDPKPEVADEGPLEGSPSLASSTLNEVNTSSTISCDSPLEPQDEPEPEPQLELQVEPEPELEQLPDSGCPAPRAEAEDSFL
# MAP2K2 (human) = MAP2K2 (human) (UniProt P36507)
# INSRR (human) = INSRR (human) (UniProt P14616)
# PRKCE (human) = PRKCE (human) (UniProt Q02156)
# TEC (human) = TEC (human) (UniProt P42680)
# MAPKAPK5 (human) = MAPKAPK5 (human) (UniProt Q8IW41)
# Chain of MAPKAPK5 (human) (Q8IW41 whole entry, looked up): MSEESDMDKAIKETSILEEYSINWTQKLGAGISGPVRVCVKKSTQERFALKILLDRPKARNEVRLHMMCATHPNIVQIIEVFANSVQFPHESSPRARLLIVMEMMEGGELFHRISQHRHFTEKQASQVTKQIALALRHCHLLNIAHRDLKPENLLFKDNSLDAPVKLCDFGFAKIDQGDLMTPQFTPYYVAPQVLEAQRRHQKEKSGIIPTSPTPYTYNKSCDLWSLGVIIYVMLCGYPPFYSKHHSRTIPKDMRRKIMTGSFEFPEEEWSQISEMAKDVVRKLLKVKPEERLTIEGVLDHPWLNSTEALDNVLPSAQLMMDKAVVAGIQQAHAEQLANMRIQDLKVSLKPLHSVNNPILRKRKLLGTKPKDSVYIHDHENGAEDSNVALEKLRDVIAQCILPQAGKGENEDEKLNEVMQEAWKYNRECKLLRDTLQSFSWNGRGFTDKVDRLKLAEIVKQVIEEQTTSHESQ
# PDGFRA (human) = PDGFRA (human) (UniProt P16234)
# NEK11 (human) = NEK11 (human) (UniProt Q8NG66)
# TSSK2 (human) = TSSK2 (human) (UniProt Q96PF2)
# Chain of TSSK2 (human) (Q96PF2 whole entry, looked up): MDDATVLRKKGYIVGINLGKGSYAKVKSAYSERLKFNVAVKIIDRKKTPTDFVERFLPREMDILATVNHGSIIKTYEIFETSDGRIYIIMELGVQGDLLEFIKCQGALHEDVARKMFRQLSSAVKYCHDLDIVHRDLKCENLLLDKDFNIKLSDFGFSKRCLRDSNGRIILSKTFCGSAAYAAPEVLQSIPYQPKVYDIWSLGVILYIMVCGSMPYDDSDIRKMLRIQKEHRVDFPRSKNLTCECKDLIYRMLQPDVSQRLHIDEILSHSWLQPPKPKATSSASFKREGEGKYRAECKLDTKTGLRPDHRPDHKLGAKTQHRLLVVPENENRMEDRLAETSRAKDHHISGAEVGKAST
# CDK5 CDK5R1 p35 (human) = CDK5 CDK5R1 p35 (human) (UniProt Q00535+Q15078)
# RPS6KA5 KD2 (human) = RPS6KA5 KD2 (human) (UniProt O75582)
# NEK3 (human) = NEK3 (human) (UniProt P51956)
# TNK2 (human) = TNK2 (human) (UniProt Q07912)
# SIK2 (human) = SIK2 (human) (UniProt Q9H0K1)
# AURKA (human) = AURKA (human) (UniProt O14965)
# GRK5 (human) = GRK5 (human) (UniProt P34947)
# NEK4 (human) = NEK4 (human) (UniProt P51957)
# DAPK3 (human) = DAPK3 (human) (UniProt O43293)
# VRK1 (human) = VRK1 (human) (UniProt Q99986)
# Chain of VRK1 (human) (Q99986 whole entry, looked up): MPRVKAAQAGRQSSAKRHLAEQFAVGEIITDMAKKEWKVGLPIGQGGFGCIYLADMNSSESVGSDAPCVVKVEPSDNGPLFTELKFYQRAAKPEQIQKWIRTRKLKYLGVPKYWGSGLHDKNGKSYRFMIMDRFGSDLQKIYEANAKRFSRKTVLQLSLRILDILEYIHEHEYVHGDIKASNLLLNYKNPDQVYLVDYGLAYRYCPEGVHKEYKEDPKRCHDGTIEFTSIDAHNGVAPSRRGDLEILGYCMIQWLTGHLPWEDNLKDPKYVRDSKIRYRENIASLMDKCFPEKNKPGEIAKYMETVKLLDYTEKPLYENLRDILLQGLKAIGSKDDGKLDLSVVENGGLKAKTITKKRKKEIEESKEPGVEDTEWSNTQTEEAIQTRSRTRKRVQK
# SRPK1 (human) = SRPK1 (human) (UniProt Q96SB4)
# MAP3K9 (human) = MAP3K9 (human) (UniProt P80192)
# GSG2 (human) = GSG2 (human) (UniProt Q8TF76)
# CHUK (human) = CHUK (human) (UniProt O15111)
# CAMK4 (human) = CAMK4 (human) (UniProt Q16566)
# WEE1 (human) = WEE1 (human) (UniProt P30291)
# BTK (human) = BTK (human) (UniProt Q06187)
# [2] = target: JAK1 JH1 catalytic (human) (UniProt P23458)
# MAPK11 (human) = MAPK11 (human) (UniProt Q15759)
# NEK9 (human) = NEK9 (human) (UniProt Q8TD19)
# ADRBK2 (human) = ADRBK2 (human) (UniProt P35626)
# CSK (human) = CSK (human) (UniProt P41240)
# Chain of CSK (human) (P41240 whole entry, looked up): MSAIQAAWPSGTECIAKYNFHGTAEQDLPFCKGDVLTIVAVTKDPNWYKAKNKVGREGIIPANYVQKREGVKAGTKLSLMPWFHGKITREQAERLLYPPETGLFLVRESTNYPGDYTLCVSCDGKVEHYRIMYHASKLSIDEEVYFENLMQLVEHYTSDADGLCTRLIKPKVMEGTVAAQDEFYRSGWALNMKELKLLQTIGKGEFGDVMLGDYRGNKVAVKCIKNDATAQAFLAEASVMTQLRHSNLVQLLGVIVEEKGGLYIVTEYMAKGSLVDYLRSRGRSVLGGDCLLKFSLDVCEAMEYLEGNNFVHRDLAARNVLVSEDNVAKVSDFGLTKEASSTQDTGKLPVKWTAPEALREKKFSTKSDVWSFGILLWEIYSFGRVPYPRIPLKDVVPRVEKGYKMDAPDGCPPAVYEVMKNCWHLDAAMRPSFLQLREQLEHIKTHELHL
# PRKG2 (human) = PRKG2 (human) (UniProt Q13237)
# EPHB4 (human) = EPHB4 (human) (UniProt P54760)
# Chain of MATK (human) (P42679 whole entry, looked up): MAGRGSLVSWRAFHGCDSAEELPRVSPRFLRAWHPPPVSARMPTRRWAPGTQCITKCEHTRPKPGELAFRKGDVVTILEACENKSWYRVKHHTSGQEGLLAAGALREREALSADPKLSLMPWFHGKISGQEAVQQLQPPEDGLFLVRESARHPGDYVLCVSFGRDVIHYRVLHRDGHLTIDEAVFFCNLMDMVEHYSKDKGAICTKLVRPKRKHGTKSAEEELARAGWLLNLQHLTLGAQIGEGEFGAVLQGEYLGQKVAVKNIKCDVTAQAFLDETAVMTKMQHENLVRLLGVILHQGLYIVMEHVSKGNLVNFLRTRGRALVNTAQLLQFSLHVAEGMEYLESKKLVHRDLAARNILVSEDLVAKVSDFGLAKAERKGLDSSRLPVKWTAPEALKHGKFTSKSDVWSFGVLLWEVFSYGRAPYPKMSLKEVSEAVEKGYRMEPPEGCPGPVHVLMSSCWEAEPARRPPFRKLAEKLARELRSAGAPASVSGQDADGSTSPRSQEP
# Chain of PAK2 (human) (Q13177 whole entry, looked up): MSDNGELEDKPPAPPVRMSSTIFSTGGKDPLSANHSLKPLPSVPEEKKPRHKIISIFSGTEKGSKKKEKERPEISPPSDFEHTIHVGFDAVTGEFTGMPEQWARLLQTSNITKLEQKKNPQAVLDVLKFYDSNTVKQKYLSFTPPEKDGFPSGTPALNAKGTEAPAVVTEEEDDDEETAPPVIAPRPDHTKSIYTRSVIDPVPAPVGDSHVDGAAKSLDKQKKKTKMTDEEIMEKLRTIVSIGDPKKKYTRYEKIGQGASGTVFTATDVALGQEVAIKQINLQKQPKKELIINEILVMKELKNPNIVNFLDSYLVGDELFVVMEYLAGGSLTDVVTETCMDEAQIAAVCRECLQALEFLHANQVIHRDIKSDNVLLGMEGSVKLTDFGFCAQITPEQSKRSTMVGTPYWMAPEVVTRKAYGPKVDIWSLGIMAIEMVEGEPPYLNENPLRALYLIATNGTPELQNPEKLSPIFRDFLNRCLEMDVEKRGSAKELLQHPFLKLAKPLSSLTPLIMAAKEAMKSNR
# Chain of HIPK1 (human) (Q86Z02 whole entry, looked up): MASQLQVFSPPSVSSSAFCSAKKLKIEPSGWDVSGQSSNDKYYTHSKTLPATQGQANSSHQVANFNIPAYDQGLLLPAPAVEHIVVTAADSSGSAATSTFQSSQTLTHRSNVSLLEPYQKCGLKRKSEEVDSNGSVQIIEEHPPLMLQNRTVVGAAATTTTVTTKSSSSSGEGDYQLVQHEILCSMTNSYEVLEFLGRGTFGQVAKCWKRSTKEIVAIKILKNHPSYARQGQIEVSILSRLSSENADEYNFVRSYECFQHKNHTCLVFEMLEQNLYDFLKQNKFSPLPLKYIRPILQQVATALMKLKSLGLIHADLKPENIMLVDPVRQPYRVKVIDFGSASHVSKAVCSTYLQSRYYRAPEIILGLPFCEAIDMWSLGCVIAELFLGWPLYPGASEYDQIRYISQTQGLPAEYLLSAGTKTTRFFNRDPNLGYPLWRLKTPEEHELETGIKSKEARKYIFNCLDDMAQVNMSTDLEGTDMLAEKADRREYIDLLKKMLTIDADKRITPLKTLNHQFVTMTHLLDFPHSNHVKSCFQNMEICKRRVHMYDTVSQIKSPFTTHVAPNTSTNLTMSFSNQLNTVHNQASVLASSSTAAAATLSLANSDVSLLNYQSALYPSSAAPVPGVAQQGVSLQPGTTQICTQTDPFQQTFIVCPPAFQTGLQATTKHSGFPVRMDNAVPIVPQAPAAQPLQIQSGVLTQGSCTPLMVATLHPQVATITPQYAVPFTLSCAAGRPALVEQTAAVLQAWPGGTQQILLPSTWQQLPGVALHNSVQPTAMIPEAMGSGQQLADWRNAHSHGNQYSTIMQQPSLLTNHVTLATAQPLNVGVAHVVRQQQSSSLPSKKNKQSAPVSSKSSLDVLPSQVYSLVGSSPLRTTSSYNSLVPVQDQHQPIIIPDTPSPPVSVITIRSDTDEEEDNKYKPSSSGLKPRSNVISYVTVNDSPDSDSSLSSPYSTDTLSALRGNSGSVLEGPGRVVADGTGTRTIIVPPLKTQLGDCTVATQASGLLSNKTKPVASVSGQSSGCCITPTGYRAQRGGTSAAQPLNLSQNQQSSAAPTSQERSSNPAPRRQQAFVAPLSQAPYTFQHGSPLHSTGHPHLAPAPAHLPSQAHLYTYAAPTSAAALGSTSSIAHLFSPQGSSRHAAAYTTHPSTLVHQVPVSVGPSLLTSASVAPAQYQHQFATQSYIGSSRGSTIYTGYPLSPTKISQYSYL
smiles,measurement,setting,value
Cn1cnc2cc3c(Nc4cccc(Br)c4)ncnc3cc21,residual activity,YES1 (human),45.7%
same,residual activity,MATK (human),85.9%
same,residual activity,HIPK1 (human),108%
same,residual activity,NEK6 (human),98.1%
same,residual activity,PAK2 (human),99.8%
same,residual activity,MAPK1 (human),94.2%
same,residual activity,[1],112%
same,residual activity,PKN1 (human),89.1%
same,residual activity,ITK (human),102%
same,residual activity,PDGFRB (human),99.7%
same,residual activity,MAP2K2 (human),101%
same,residual activity,INSRR (human),92.1%
same,residual activity,PRKCE (human),87.8%
same,residual activity,TEC (human),123%
same,residual activity,MAPKAPK5 (human),130%
same,residual activity,PDGFRA (human),107%
same,residual activity,NEK11 (human),101%
same,residual activity,TSSK2 (human),111%
same,residual activity,CDK5 CDK5R1 p35 (human),84.6%
same,residual activity,RPS6KA5 KD2 (human),93.5%
same,residual activity,NEK3 (human),88.2%
same,residual activity,TNK2 (human),87.3%
same,residual activity,SIK2 (human),101%
same,residual activity,AURKA (human),87.8%
same,residual activity,GRK5 (human),109%
same,residual activity,NEK4 (human),96.8%
same,residual activity,DAPK3 (human),93.7%
same,residual activity,VRK1 (human),100%
same,residual activity,SRPK1 (human),96.1%
same,residual activity,MAP3K9 (human),79.8%
same,residual activity,GSG2 (human),89.4%
same,residual activity,CHUK (human),89.7%
same,residual activity,CAMK4 (human),98.6%
same,residual activity,WEE1 (human),106%
same,residual activity,BTK (human),86.8%
same,residual activity,[2],96.4%
same,residual activity,MAPK11 (human),85.9%
same,residual activity,NEK9 (human),90%
same,residual activity,ADRBK2 (human),89.9%
same,residual activity,CSK (human),88.1%
same,residual activity,PRKG2 (human),63.6%
O=C1NC(=O)/C(=C\c2ccc3nccnc3c2)S1,residual activity,YES1 (human),89.3%
same,residual activity,MATK (human),90.5%
same,residual activity,HIPK1 (human),104%
same,residual activity,NEK6 (human),109%
same,residual activity,PAK2 (human),98.4%
same,residual activity,MAPK1 (human),85.2%
same,residual activity,[1],85.2%
same,residual activity,PKN1 (human),101%
same,residual activity,ITK (human),91.2%
same,residual activity,PDGFRB (human),99.5%
same,residual activity,MAP2K2 (human),93.5%
same,residual activity,INSRR (human),111%
same,residual activity,PRKCE (human),101%
same,residual activity,TEC (human),117%
same,residual activity,PDGFRA (human),106%
same,residual activity,NEK11 (human),111%
same,residual activity,TSSK2 (human),88.7%
same,residual activity,CDK5 CDK5R1 p35 (human),97.9%
same,residual activity,RPS6KA5 KD2 (human),87.8%
same,residual activity,NEK3 (human),97.3%
same,residual activity,TNK2 (human),91.4%
same,residual activity,SIK2 (human),102%
same,residual activity,AURKA (human),97.2%
same,residual activity,GRK5 (human),105%
same,residual activity,NEK4 (human),93.1%
same,residual activity,DAPK3 (human),93.3%
same,residual activity,VRK1 (human),94.9%
same,residual activity,SRPK1 (human),110%
same,residual activity,MAP3K9 (human),102%
same,residual activity,GSG2 (human),38.8%
same,residual activity,CHUK (human),86.7%
same,residual activity,CAMK4 (human),106%
same,residual activity,EPHB4 (human),101%
same,residual activity,WEE1 (human),83.1%
same,residual activity,BTK (human),104%
same,residual activity,[2],103%
same,residual activity,MAPK11 (human),99.2%
same,residual activity,NEK9 (human),111%
same,residual activity,ADRBK2 (human),111%
same,residual activity,CSK (human),86.3%
same,residual activity,PRKG2 (human),106%
Nc1nnc2[nH]c3ccccc3nc1-2,residual activity,YES1 (human),97.1%
same,residual activity,MATK (human),91.9%
same,residual activity,NEK6 (human),95.5%
same,residual activity,PAK2 (human),104%
same,residual activity,MAPK1 (human),100%
same,residual activity,[1],107%
same,residual activity,PKN1 (human),92%
same,residual activity,ITK (human),101%
same,residual activity,PDGFRB (human),98.1%
same,residual activity,MAP2K2 (human),104%
same,residual activity,INSRR (human),89.3%
same,residual activity,PRKCE (human),86.4%
same,residual activity,TEC (human),108%
same,residual activity,MAPKAPK5 (human),82.7%
same,residual activity,PDGFRA (human),103%
same,residual activity,NEK11 (human),110%
same,residual activity,TSSK2 (human),110%
same,residual activity,CDK5 CDK5R1 p35 (human),88.7%
same,residual activity,RPS6KA5 KD2 (human),92.4%
same,residual activity,NEK3 (human),94.9%
same,residual activity,TNK2 (human),101%
same,residual activity,SIK2 (human),102%
same,residual activity,AURKA (human),111%
same,residual activity,GRK5 (human),101%
same,residual activity,NEK4 (human),97.8%
same,residual activity,DAPK3 (human),98.2%
same,residual activity,VRK1 (human),103%
same,residual activity,SRPK1 (human),101%
same,residual activity,MAP3K9 (human),97.7%
same,residual activity,GSG2 (human),82.1%
same,residual activity,CHUK (human),85.9%
same,residual activity,CAMK4 (human),104%
same,residual activity,EPHB4 (human),84.9%
same,residual activity,WEE1 (human),101%
same,residual activity,BTK (human),93.9%
same,residual activity,[2],99.8%
same,residual activity,MAPK11 (human),93.8%
same,residual activity,NEK9 (human),98.5%
same,residual activity,ADRBK2 (human),92.4%
same,residual activity,CSK (human),100%
same,residual activity,PRKG2 (human),66.7%
O=C1Cc2c([nH]c3ccc(Br)cc23)-c2ccccc2N1,residual activity,YES1 (human),59.1%
same,residual activity,MATK (human),93.6%
same,residual activity,NEK6 (human),100%
same,residual activity,PAK2 (human),95.5%
same,residual activity,MAPK1 (human),90.5%
same,residual activity,[1],81.7%
same,residual activity,PKN1 (human),101%
same,residual activity,ITK (human),102%
same,residual activity,PDGFRB (human),93.2%
same,residual activity,MAP2K2 (human),116%
same,residual activity,INSRR (human),95.8%
same,residual activity,PRKCE (human),96.9%
same,residual activity,TEC (human),96.4%
same,residual activity,MAPKAPK5 (human),94.6%
same,residual activity,PDGFRA (human),103%
same,residual activity,NEK11 (human),107%
same,residual activity,TSSK2 (human),99.3%
same,residual activity,CDK5 CDK5R1 p35 (human),70.8%
same,residual activity,RPS6KA5 KD2 (human),99.6%
same,residual activity,NEK3 (human),96.2%
same,residual activity,TNK2 (human),38.8%
same,residual activity,SIK2 (human),63.5%
same,residual activity,AURKA (human),99.7%
same,residual activity,GRK5 (human),97%
same,residual activity,NEK4 (human),98.9%
same,residual activity,DAPK3 (human),111%
same,residual activity,VRK1 (human),87.3%
same,residual activity,SRPK1 (human),99.6%
same,residual activity,MAP3K9 (human),64.6%
same,residual activity,GSG2 (human),89.1%
same,residual activity,CHUK (human),98.6%
same,residual activity,CAMK4 (human),98.1%
same,residual activity,EPHB4 (human),100%
same,residual activity,WEE1 (human),87.7%
same,residual activity,BTK (human),98%
same,residual activity,[2],102%
same,residual activity,MAPK11 (human),104%
same,residual activity,NEK9 (human),94%
same,residual activity,ADRBK2 (human),109%
same,residual activity,CSK (human),88%
same,residual activity,PRKG2 (human),101%
CC(C)c1nn(-c2c(Cl)cccc2Cl)c2nc(Cc3ccc(OCCO)cc3)nc(O)c12,residual activity,YES1 (human),86.3%
same,residual activity,MATK (human),91.1%
same,residual activity,HIPK1 (human),102%
same,residual activity,NEK6 (human),105%
same,residual activity,PAK2 (human),95.6%
same,residual activity,MAPK1 (human),91.7%
same,residual activity,[1],111%
same,residual activity,PKN1 (human),97%
same,residual activity,ITK (human),98.6%
same,residual activity,PDGFRB (human),98.9%
same,residual activity,MAP2K2 (human),98.5%
same,residual activity,INSRR (human),94.2%
same,residual activity,PRKCE (human),90.5%
same,residual activity,TEC (human),105%
same,residual activity,PDGFRA (human),91.6%
same,residual activity,NEK11 (human),109%
same,residual activity,TSSK2 (human),105%
same,residual activity,CDK5 CDK5R1 p35 (human),9.64%
same,residual activity,RPS6KA5 KD2 (human),85.6%
same,residual activity,NEK3 (human),87.3%
same,residual activity,TNK2 (human),98.9%
same,residual activity,SIK2 (human),116%
same,residual activity,AURKA (human),107%
same,residual activity,GRK5 (human),108%
same,residual activity,NEK4 (human),96.3%
same,residual activity,DAPK3 (human),104%
same,residual activity,VRK1 (human),103%
same,residual activity,SRPK1 (human),97.4%
same,residual activity,MAP3K9 (human),95.7%
same,residual activity,GSG2 (human),94.3%
same,residual activity,CHUK (human),98.5%
same,residual activity,CAMK4 (human),102%
same,residual activity,EPHB4 (human),90.7%
same,residual activity,WEE1 (human),109%
same,residual activity,BTK (human),100%
same,residual activity,[2],101%
same,residual activity,MAPK11 (human),81.8%
same,residual activity,NEK9 (human),97.3%
same,residual activity,ADRBK2 (human),87.9%
same,residual activity,CSK (human),106%
same,residual activity,PRKG2 (human),61.6%
